Source: paper PMC9455146, “Effects of Novel Photosynthetic Inhibitor [CuL2]Br2 Complex on Photosystem II Activity in Spinach” (Cells, 2022)

Target: T1, D1-protein of the PSII reaction center (QB-plastoquinone-herbicide-binding protein) (Spinacia oleracea, UniProt P69560)
T1 construct: gene psbA; native protein in isolated spinach thylakoids; with photosystem II complex
Assay: PSII chlorophyll fluorescence (PAM) in isolated thylakoids; block of Light 1-induced QA- re-oxidation
Type: biochemical

CN(C)C(=O)Nc1ccc(Cl)c(Cl)c1 [DCMU, 3-(3,4-dichlorophenyl)-1,1-dimethylurea]
Concentration blocking Light 1-induced QA- re-oxidation: 0.5 µM
